{
  "source": "patent US12162878B2",
  "about": "(HINOVA PHARMACEUTICALS INC., priority 2018, dated 2024)",
  "system": "CWR22RV1 cells",
  "assay": "Inhibition of proliferation of CWR22RV1 cells (CCK-8)",
  "assay_type": "cell-based, human",
  "details": "Homo sapiens, CWR22Rv1, 144 h, 6 days",
  "method": "• CWR22RV1 cell line (Cell Bank of Chinese Academy of Sciences, TCHu100) • FBS (Gibco, Cat. No. 10099-141) • 0.01M PBS (Biosharp, Cat. No. 162262) • RIPM1640 (Hyclone, Cat. No. 308090.01) • Penicillin-Streptomycin (Hyclone, Cat. No. SV30010) • Cell counting kit-8 (Signalway Antibody, Cat. No. CP002) • DMSO (Sigma, Cat. No. D5879) • Centrifuge Tube, 15 ml (Excell Bio, Cat. No. CS015-0001) • Cell Culture Dish, (Excell Bio, Cat. No. CS016-0128) • 96-well cell culture cluster (Corning, Cat. No. 3599) • 2. Experimental method (1) Preparation of Buffer\n1) CWR22RV1 cells were subcultured in cell culture medium, and the cells in good growth condition were seeded in a 96-well plate, 80 μL for each well, thus the number of cells per well was 1500, then the plate was cultured overnight in a 37° C., 5% CO2 cell incubator.\n2) The drug was prepared with dimethyl sulfoxide (DMSO) as a 30 mM stock solution. Prior to use, the solution was diluted 3 times with DMSO, and then diluted with a 3-fold gradient to obtain 9 concentration gradients. Then, each concentration of the compound was further diluted 200 times with the culture solution (to ensure that DMSO concentration in the culture system was 0.1%), 2 repeat wells for each concentration. The diluted solution of each compound (20 μL) was added to the cell culture well (with a final concentration of 10 μM, 3.3 μM, 1.1 μM . . . ), and shaken gently for mixing. In addition, three negative control wells containing only cells and three blank control wells containing only culture medium (20 μL DMSO diluted 200 times with culture medium being added to six wells) were included.\n(1) After culturing for 6 days, 10 μL CCK-8 was added to each well and cultured for additional 2.5 h in a 37° C., 5% CO2 cell incubator.\n(2) The absorbance (OD value) at 450 nm was measured with a multifunctional microplate reader.\n(3) The data was analyzed by the Dose-response-inhibition equation in the software GraphPad Prism6, and the IC50 value was obtained.",
  "data": [
    {"smiles": "CCS(=O)(=O)Nc1ccc(N2CCC3(CC3)C2)c(-c2cn(C)c(=O)c3[nH]ccc23)c1", "note": "[Compound 7, N-(3-(6-methyl-7-oxo-6,7-dihydro-1H-pyrrolo[2,3-c]pyridin-4-yl)-4-(5-aza-spiro[2.4]heptan-5-yl)phenyl)ethylsulfonamide]", "values": [
      {"measurement": "IC50", "value": 0.018, "unit": "µM"}
    ]},
    {"smiles": "CCS(=O)(=O)Nc1ccc(N2CCC3(CC2)CC3)c(-c2cn(C)c(=O)c3[nH]ccc23)c1", "note": "[Compound 8]", "values": [
      {"measurement": "IC50", "value": 0.006, "unit": "µM"}
    ]},
    {"smiles": "CCS(=O)(=O)Nc1ccc(N2CCCC3(CC3)C2)c(-c2cn(C)c(=O)c3[nH]ccc23)c1", "note": "[Compound 9, N-(3-(6-methyl-7-oxo-6,7-dihydro-1H-pyrrolo[2,3-c]pyridin-4-yl)-4-(5-aza-spiro[2.5]octan-5-yl)phenyl)ethylsulfonamide]", "values": [
      {"measurement": "IC50", "value": 0.03, "unit": "µM"}
    ]},
    {"smiles": "Cn1cc(-c2cc(NS(=O)(=O)C3CC3)ccc2N2CC3(CCC3)C2)c2cc[nH]c2c1=O", "note": "[Compound 10, N-(3-(6-methyl-7-oxo-6,7-dihydro-1H-pyrrolo[2,3-c]pyridin-4-yl)-4-(2-aza-spiro[3.3]heptan-2-yl)phenyl)cyclopropanesulfonamide]", "values": [
      {"measurement": "IC50", "value": 0.029, "unit": "µM"}
    ]},
    {"smiles": "Cn1cc(-c2cc(NS(C)(=O)=O)ccc2N2CC3(CCC3)C2)c2cc[nH]c2c1=O", "note": "[Compound 11, N-(3-(6-methyl-7-oxo-6,7-dihydro-1H-pyrrolo[2,3-c]pyridin-4-yl)-4-(2-aza-spiro[3.3]heptan-2-yl)phenyl)methanesulfonamide]", "values": [
      {"measurement": "IC50", "value": 0.03, "unit": "µM"}
    ]},
    {"smiles": "Cn1cc(-c2cc(NS(=O)(=O)C3COC3)ccc2N2CC3(CCC3)C2)c2cc[nH]c2c1=O", "note": "[Compound 12, N-(3-(6-methyl-7-oxo-6,7-dihydro-1H-pyrrolo[2,3-c]pyridin-4-yl)-4-(2-aza-spiro[3.3]heptan-2-yl)phenyl)oxetane-3-sulfonamide]", "values": [
      {"measurement": "IC50", "value": 0.089, "unit": "µM"}
    ]},
    {"smiles": "CCCCS(=O)(=O)Nc1ccc(N2CC3(CCC3)C2)c(-c2cn(C)c(=O)c3[nH]ccc23)c1", "note": "[Compound 13, N-(3-(6-methyl-7-oxo-6,7-dihydro-1H-pyrrolo[2,3-c]pyridin-4-yl)-4-(2-aza-spiro[3.3]heptan-2-yl)phenyl)butane-1-sulfonamide]", "values": [
      {"measurement": "IC50", "value": 0.079, "unit": "µM"}
    ]},
    {"smiles": "CCS(=O)(=O)Nc1ccc(N2CC3(CCC3)C2)c(-c2cn(C)c(=O)c3[nH]ccc23)c1", "note": "[Compound 14, N-(3-(6-methyl-7-oxo-6,7-dihydro-1H-pyrrolo[2,3-c]pyridin-4-yl)-4-(2-aza-spiro[3.3]heptan-2-yl)phenyl)ethanesulfonamide]", "values": [
      {"measurement": "IC50", "value": 0.031, "unit": "µM"}
    ]},
    {"smiles": "Cn1cc(-c2cc(NS(C)(=O)=O)ccc2N2CC3(COC3)C2)c2cc[nH]c2c1=O", "note": "[Compound 15, N-(3-(6-methyl-7-oxo-6,7-dihydro-1H-pyrrolo[2,3-c]pyridin-4-yl)-4-(2-oxa-6-aza-spiro[3.3]heptan-6-yl)phenyl)methanesulfonamide]", "values": [
      {"measurement": "IC50", "value": 0.65, "unit": "µM"}
    ]},
    {"smiles": "CCS(=O)(=O)Nc1ccc(N2CC3(COC3)C2)c(-c2cn(C)c(=O)c3[nH]ccc23)c1", "note": "[Compound 16, N-(3-(6-methyl-7-oxo-6,7-dihydro-1H-pyrrolo[2,3-c]pyridin-4-yl)-4-(2-oxa-6-aza-spiro[3.3]heptan-6-yl)phenyl)ethanesulfonamide]", "values": [
      {"measurement": "IC50", "value": 0.38, "unit": "µM"}
    ]},
    {"smiles": "CCCCS(=O)(=O)Nc1ccc(N2CC3(COC3)C2)c(-c2cn(C)c(=O)c3[nH]ccc23)c1", "note": "[Compound 17, N-(3-(6-methyl-7-oxo-6,7-dihydro-1H-pyrrolo[2,3-c]pyridin-4-yl)-4-(2-oxa-6-aza-spiro[3.3]heptan-6-yl)phenyl)butan-1-sulfonamide]", "values": [
      {"measurement": "IC50", "value": 0.44, "unit": "µM"}
    ]},
    {"smiles": "Cn1cc(-c2cc(NS(=O)(=O)C3CC3)ccc2N2CC3(COC3)C2)c2cc[nH]c2c1=O", "note": "[Compound 18, N-(3-(6-methyl-7-oxo-6,7-dihydro-1H-pyrrolo[2,3-c]pyridin-4-yl)-4-(2-oxa-6-aza-spiro[3.3]heptan-6-yl)phenyl)cyclopropanesulfonamide]", "values": [
      {"measurement": "IC50", "value": 0.52, "unit": "µM"}
    ]},
    {"smiles": "CCOC(=O)C1CC12CCN(c1ccc(NS(=O)(=O)CC)cc1-c1cn(C)c(=O)c3[nH]ccc13)CC2", "note": "(centres unmarked) [Compound 19]", "values": [
      {"measurement": "IC50", "value": 0.41, "unit": "µM"}
    ]},
    {"smiles": "CCS(=O)(=O)Nc1ccc(N2CCC3(CC2)CC3C(=O)O)c(-c2cn(C)c(=O)c3[nH]ccc23)c1", "note": "(centres unmarked) [Compound 20, 6-(4-(ethylsulfonamide)-2-(6-methyl-7-oxo-6,7-dihydro-1H-pyrrolo[2,3-c]pyridin-4-yl)phenyl)-6-aza-spiro[2.5]octan-1-carboxylic acid]", "values": [
      {"measurement": "IC50", "value": 0.55, "unit": "µM"}
    ]},
    {"smiles": "Cn1cc(-c2cc(S(C)(=O)=O)ccc2N2CCC3(CC3)C2)c2cc[nH]c2c1=O", "note": "[Compound 24, 6-methyl-4-(5-(methylsulfonyl)-2-(5-aza-spiro[2.4]heptan-5-yl)phenyl)-1H-pyrrolo[2,3-c]pyridin-7(6H)-one]", "values": [
      {"measurement": "IC50", "value": 0.017, "unit": "µM"}
    ]},
    {"smiles": "CCS(=O)(=O)c1ccc(N2CCC3(CC3)C2)c(-c2cn(C)c(=O)c3[nH]ccc23)c1", "note": "[Compound 25, 4-(5(ethylsulfonyl)-2-(5-aza-spiro[2.4]heptan-5-yl)phenyl)-6-methyl-1H-pyrrolo[2,3-c]pyridin-7(6H)-one]", "values": [
      {"measurement": "IC50", "value": 0.026, "unit": "µM"}
    ]},
    {"smiles": "Cn1cc(-c2cc(S(C)(=O)=O)ccc2N2CCC3(CC2)CC3)c2cc[nH]c2c1=O", "note": "[Compound 26, 6-methyl-4-(5(methylsulfonyl)-2-(6-aza-spiro[2.5]octan-6-yl)phenyl)-1H-pyrrolo[2,3-c]pyridin-7(6H)-one]", "values": [
      {"measurement": "IC50", "value": 0.006, "unit": "µM"}
    ]},
    {"smiles": "Cn1cc(-c2cc(S(C)(=O)=O)ccc2N2CCCC3(CC3)C2)c2cc[nH]c2c1=O", "note": "[Compound 27, 6-methyl-4-(5(methylsulfonyl)-2-(5-aza-spiro[2.5]octan-5-yl)phenyl)-1H-pyrrolo[2,3-c]pyridin-7(6H)-one]", "values": [
      {"measurement": "IC50", "value": 0.031, "unit": "µM"}
    ]},
    {"smiles": "Cn1cc(-c2cc(S(=O)(=O)C3CC3)ccc2N2CCCC3(CC3)C2)c2cc[nH]c2c1=O", "note": "[Compound 28, 4-(5-(cyclopropylsulfonyl)-2-(5-aza-spiro[2.5]octan-5-yl)phenyl)-6-methyl-1H-pyrrolo[2,3-c]pyridin-7(6H)-one]", "values": [
      {"measurement": "IC50", "value": 0.036, "unit": "µM"}
    ]},
    {"smiles": "Cn1cc(-c2cc(S(=O)(=O)C3CC3)ccc2N2CC3(CCC3)C2)c2cc[nH]c2c1=O", "note": "[Compound 29, 4-(5-(cyclopropylsulfonyl)-2-(2-aza-spiro[3.3]heptan-2-yl)phenyl)-6-methyl-1H-pyrrolo[2,3-c]pyridin-7(6H)-one]", "values": [
      {"measurement": "IC50", "value": 0.045, "unit": "µM"}
    ]},
    {"smiles": "Cn1cc(-c2cc(S(C)(=O)=O)ccc2N2CC3(CCC3)C2)c2cc[nH]c2c1=O", "note": "[Compound 30, 6-methyl-4-(5-(methylsulfonyl)-2-(2-aza-spiro[3.3]heptan-2-yl)phenyl)-1H-pyrrolo[2,3-c]pyridin-7(6H)-one]", "values": [
      {"measurement": "IC50", "value": 0.038, "unit": "µM"}
    ]},
    {"smiles": "Cn1cc(-c2cc(S(=O)(=O)C3COC3)ccc2N2CC3(CCC3)C2)c2cc[nH]c2c1=O", "note": "[Compound 31, 6-methyl-4-(5-(oxetane-3-ylsulfonyl)-2-(2-aza-spiro[3.3]heptan-2-yl)phenyl)-1H-pyrrolo[2,3-c]pyridin-7(6H)-one]", "values": [
      {"measurement": "IC50", "value": 0.05, "unit": "µM"}
    ]},
    {"smiles": "CCCCS(=O)(=O)c1ccc(N2CC3(CCC3)C2)c(-c2cn(C)c(=O)c3[nH]ccc23)c1", "note": "[Compound 32]", "values": [
      {"measurement": "IC50", "value": 0.065, "unit": "µM"}
    ]},
    {"smiles": "CCS(=O)(=O)c1ccc(N2CC3(CCC3)C2)c(-c2cn(C)c(=O)c3[nH]ccc23)c1", "note": "[Compound 33, 4-(5-(ethylsulfonyl)-2-(2-aza-spiro[3.3]heptan-2-yl)phenyl)-6-methyl-1H-pyrrolo[2,3-c]pyridin-7(6H)-one]", "values": [
      {"measurement": "IC50", "value": 0.045, "unit": "µM"}
    ]},
    {"smiles": "Cn1cc(-c2cc(S(C)(=O)=O)ccc2N2CC3(COC3)C2)c2cc[nH]c2c1=O", "note": "[Compound 34, 6-methyl-4-(5-(methylsulfonyl)-2-(2-oxa-6-aza-spiro[3.3]heptan-6-yl)phenyl)-1H-pyrrolo[2,3-c]pyridin-7(6H)-one]", "values": [
      {"measurement": "IC50", "value": 0.38, "unit": "µM"}
    ]},
    {"smiles": "CCS(=O)(=O)c1ccc(N2CC3(COC3)C2)c(-c2cn(C)c(=O)c3[nH]ccc23)c1", "note": "[Compound 35, 4-(5-(ethylsulfonyl)-2-(2-oxa-6-aza-spiro[3.3]heptan-6-yl)phenyl)-6-methyl-1H-pyrrolo[2,3-c]pyridin-7(6H)-one]", "values": [
      {"measurement": "IC50", "value": 0.44, "unit": "µM"}
    ]},
    {"smiles": "CCCCS(=O)(=O)c1ccc(N2CC3(COC3)C2)c(-c2cn(C)c(=O)c3[nH]ccc23)c1", "note": "[Compound 36, 4-(5-(butylsulfonyl)-2-(2-oxa-6-aza-spiro[3.3]heptan-6-yl)phenyl)-6-methyl-1H-pyrrolo[2,3-c]pyridin-7(6H)-one]", "values": [
      {"measurement": "IC50", "value": 0.56, "unit": "µM"}
    ]},
    {"smiles": "Cn1cc(-c2cc(S(=O)(=O)C3CC3)ccc2N2CC3(COC3)C2)c2cc[nH]c2c1=O", "note": "[Compound 37, 4-(5-(cyclopropylsulfonyl)-2-(2-oxa-6-aza-spiro[3.3]heptan-6-yl)phenyl)-6-methyl-1H-pyrrolo[2,3-c]pyridin-7(6H)-one]", "values": [
      {"measurement": "IC50", "value": 0.49, "unit": "µM"}
    ]},
    {"smiles": "CCOC(=O)C1CC12CCN(c1ccc(S(C)(=O)=O)cc1-c1cn(C)c(=O)c3[nH]ccc13)CC2", "note": "(centres unmarked) [Compound 38, ethyl 6-(2-(6-methyl-7-oxo-6,7-dihydro-1H-pyrrolo[2,3-c]pyridin-4-yl)-4-(methylsulfonyl)phenyl)-6-azaspiro[2.5]octane-1-carboxylate]", "values": [
      {"measurement": "IC50", "value": 0.41, "unit": "µM"}
    ]}
  ]
}
